Experimental data reported in publication PMC4855186, “Characterization of primary human hepatocyte spheroids as a model system for drug-induced liver injury, liver function and disease” (Scientific Reports, 2016).

Key:
PHH spheroids [1] = test: Chronic toxicity assay in PHH spheroids, viability by cellular ATP content; type: cell-based, human; conditions: for Fold changes in EC50 vs. 48 h (8 d): 8 d vs 48 h exposure; for Fold changes in EC50 vs. 48 h (28 d): 28 d vs 48 h exposure; for EC50: Homo sapiens
Protocol: Cryopreserved PHH (obtained from […], France or Bioreclamation IVT, USA) or fresh hepatocytes (obtained from patients subject to liver resections at Huddinge University Hospital, Stockholm, Sweden) were used for formation of spheroid cultures. Hepatocytes obtained from patient livers were isolated as previously described. Use of the liver specimens for this purpose was approved by the Ethics Committee at Karolinska Institutet ([…] Stockholm) and studies were carried out in accordance with the approved guidelines. Written informed consent was obtained from all donors of liver material. Cells were seeded into ultra-low attachment 96-well plates (Corning) at 1,500 viable cells per well and subsequently centrifuged at 100 × g for 2 min. Cells were seeded in 100 μl Williams E medium supplemented with 2 mM L-glutamine, 100 units/ml penicillin, 100 μg/ml streptomycin, 10 μg/ml insulin, 5.5 μg/ml transferrin, 6.7 ng/ml sodium selenite, 100 nM dexamethasone, and 10% FBS. Spontaneous self-aggregation of the hepatocytes initiated spheroid formation. From day 4 or 5 after seeding, when the spheroids were sufficiently compact, 50% of the medium was exchanged daily for serum-free medium. Spheroids were maintained in serum-free medium until day 35, with a medium change every 48-72 h. Cell viability was assessed by determining the ATP content of single PHH spheroids with the CellTiter-Glo Luminescent Cell Viability Assay (Promega, Sweden). At the same time-points, cell culture medium was collected and albumin concentrations were determined by ELISA (Bethyl laboratories, USA). Absolute ATP and albumin values were normalized to spheroid volumes as determined from bright field imaging to compensate for compaction. […] Treatment was started on day 8 with repeated dosing of PHH spheroids every second day in serum-free medium as indicated. Cell viability was assessed by determining the ATP content as indicated above. EC50 values were determined using GraphPad Prism (GraphPad Software, USA).

patients = tested on: patients; parameters: method as in PMID 7565947; conditions: clinical trials, cited from earlier work
[2] = human plasma Cmax; ref 21 (amiodarone), 22 (bosentan), 23 (diclofenac), 24 (fialuridine), 25 (tolcapone); read-out: In vivo Cmax; cited from earlier work
chimeric TK-NOG mice = tested on: chimeric TK-NOG mice; parameters: method as in PMID 24736310; conditions: mice carrying human hepatocytes; cited from earlier work
PHH spheroids [3] = test: Toxicity in non-infected and adenovirus (AdGL)-infected PHH spheroids; type: cell-based, human; conditions: for EC50: Homo sapiens
Protocol: Cell viability was assessed by determining the ATP content of single PHH spheroids with the CellTiter-Glo Luminescent Cell Viability Assay (Promega, Sweden). At the same time-points, cell culture medium was collected and albumin concentrations were determined by ELISA (Bethyl laboratories, USA). Absolute ATP and albumin values were normalized to spheroid volumes as determined from bright field imaging to compensate for compaction.
A recombinant adenovirus (AdGL) expressing green fluorescent protein (GFP; described in ref. [44]) was added during PHH spheroid seeding at a multiplicity of infection (MOI) of 0.1. PHH were seeded into GravityPLUS hanging-drop 96-well plates (InSphero, Zurich, Switzerland) at 1,500 viable cells per well. Spheroids were transferred to Gravity TRAP 96-well plates (InSphero) on day 7. Culture conditions were identical to the conditions for spheroids formed in ultra-low attachment plates.

[4] = tested on: bile salt export pump (BSEP) mRNA; test: BSEP mRNA expression in PHH spheroids (RT-qPCR); type: cell-based, human; conditions: 5 μM
Protocol: (§1) PHH spheroids were dosed with 5 μM chlorpromazine every second day for 1 week. For the final exposure, 20 μM tauro-nor-THCA-25-DBD (Genomembrane Company Ltd., Yokohoma, Japan) was added. Bile acid accumulation was quantified and normalized to spheroid size using CellProfiler software.
Total RNA was isolated using Qiazol lysis reagent (Qiagen). RNA was reverse-transcribed into cDNA using SuperScript III reverse transcriptase and RT-qPCR analysis was performed using a TaqMan Universal mix on a 7500 Fast Real-Time PCR system.

PHH spheroids [5] = test: Bile acid accumulation (tauro-nor-THCA-25-DBD) in PHH spheroids; type: cell-based, human; conditions: 5 μM every second day for 1 week; n = 3, p = 0.03
Protocol: as §1

PHH spheroids [6] = test: Neutral lipid staining (steatosis) in PHH spheroids; type: cell-based, human; conditions: 10 μM co-exposure with CsA 30 μM, 48 h; n = 3, p = 0.009
Protocol: PHH spheroids were treated with 30 μM cyclosporine A (CsA) and/or 10 μM α-tocopherol (α-TOH) as indicated. After 48 h, spheroids were fixed and incubated with HCS LipidTOX Green neutral lipid stain (1:500). CellProfiler software was used to quantify neutral lipid staining.

[7] = tested on: Kupffer cells in co-culture spheroids; test: LPS-induced IL-6 secretion in PHH/NPC co-culture spheroids (ELISA); type: cell-based, human; conditions: 10 μg/ml, 48 h; co-culture spheroids compared to PHH spheroids
Protocol: When used, co-cultures of cryopreserved PHH and non-parenchymal cells (NPCs; Bioreclamation IVT) originating from different donors were thawed and seeded at a ratio of 2:1 (PHH:NPC) and 2,000 viable cells per well into ultra-low attachment plates. Functionality of Kupffer cells was assessed by measuring lipopolysaccharide (LPS)-induced interleukin 6 (IL-6) secretion. LPS was added at a concentration of 10 μg/ml and supernatants were collected after 48 h. IL-6 levels were determined via ELISA (Thermo Scientific).

[8] = 672 h, PHH spheroids, viability by ATP content, dosing every second day, 28 days, read-out: EC50 (μM) 28d
[9] = PHH spheroids, viability by ATP content, 48 h exposure, read-out: EC50 (μM) 48h
[10] = PHH spheroids, viability by ATP content, dosing every second day, 7d (legend: 8 days), read-out: EC50 (μM) 7d

In the case of `COc1ccccc1Oc1c(NS(=O)(=O)c2ccc(C(C)(C)C)cc2)nc(-c2ncccn2)nc1OCCO` [Bosentan, bosentan], the “Fold changes in EC50 vs. 48 h (8 d)” value (PHH spheroids [1]) is reported as 3.6 fold, the “Fold changes in EC50 vs. 48 h (28 d)” value (PHH spheroids [1]) is reported as 6.0 fold and the EC50 (PHH spheroids [1]; [8]) is reported as 41.8 µM. For the same compound, the EC50 (PHH spheroids [1]; [9]) was > 250 µM and the EC50 (PHH spheroids [1]; [10]) was 69.5 µM.
For `O=C(O)Cc1ccccc1Nc1c(Cl)cccc1Cl` [Diclofenac, diclofenac], the EC50 (PHH spheroids [1]; [8]) was 45.9 µM, the EC50 (PHH spheroids [1]; [9]) was 191 µM and the EC50 (PHH spheroids [1]; [10]) was 56.8 µM.
In the case of `O=c1[nH]c(=O)n([C@@H]2O[C@H](CO)[C@@H](O)[C@@H]2F)cc1I` [Fialuridine, fialuridine], the patients who died (patients; of those with severe hepatotoxicity) is given as “five”, the “patients who developed severe hepatotoxicity” value (patients; several weeks after beginning treatment) is given as 7/15 and the Cmax [2] is given as 1000 nM. The hepatotoxicity (chimeric TK-NOG mice) was “induced hepatotoxicity”, the “Fold changes in EC50 vs. 48 h (8 d)” value (PHH spheroids [1]) was 142.9 fold and the “Fold changes in EC50 vs. 48 h (28 d)” value (PHH spheroids [1]) was 1000 fold. For the same compound, the EC50 (PHH spheroids [1]; 672 h, PHH spheroids, repeated dosing, 4 weeks, read-out: EC50 after 4 weeks) was 0.1 µM, the EC50 (PHH spheroids [1]; [9]) was > 100 µM and the EC50 (PHH spheroids [1]; [10]) was 0.7 µM. For the same compound, the “toxicity observed after 48 h” value (PHH spheroids [1]; PHH spheroids, 48 h exposure) was “no toxicity”.
In the case of `Cc1ccc(C(=O)c2cc(O)c(O)c([N+](=O)[O-])c2)cc1` [Tolcapone, tolcapone], the “Fold changes in EC50 vs. 48 h (8 d)” value (PHH spheroids [1]) is reported as 2 fold, the “Fold changes in EC50 vs. 48 h (28 d)” value (PHH spheroids [1]) is reported as 3.4 fold and the EC50 (PHH spheroids [1]; [8]) is reported as 5.6 µM. For the same compound, the EC50 (PHH spheroids [1]; [9]) was 18.8 µM, the EC50 (PHH spheroids [1]; [10]) was 9.4 µM and the “EC50 values related to reported in vivo Cmax” value (PHH spheroids [1]; already after acute dosing) was “lower than the reported in vivo Cmax values”.
With `N[C@@H]1[C@H]2CN(c3nc4c(cc3F)c(=O)c(C(=O)O)cn4-c3ccc(F)cc3F)C[C@@H]12` [Trovafloxacin, trovafloxacin] the EC50 (PHH spheroids [3]; non-infected PHH spheroids) was 96.1 µM, the EC50 (PHH spheroids [3]; virus-infected PHH spheroids (AdGL, MOI 0.1)) was 32.9 µM and the “enhancement of toxicity by viral infection” value (PHH spheroids [3]; infected vs non-infected spheroids, p < 0.001) was 2.9 fold.
In the case of `CN(C)CCCN1c2ccccc2Sc2ccc(Cl)cc21` [chlorpromazine], the “BSEP mRNA expression” value [4] is reported as “down-regulation” and the “accumulation of fluorescently-labelled bile acid derivative tauro-nor-THCA-25-DBD” value (PHH spheroids [5]) is reported as “significant accumulation”.
For `C[C@H]1COc2c(N3CCN(C)CC3)c(F)cc3c(=O)c(C(=O)O)cn1c23` [levofloxacin], the toxicity observed (PHH spheroids [3]; infected spheroids) was “no toxicity” and the toxicity observed (PHH spheroids [3]; non-infected spheroids) was “no toxicity”.
For `Cc1c(C)c2c(c(C)c1O)CC[C@@](C)(CCC[C@H](C)CCC[C@H](C)CCCC(C)C)O2` [α-tocopherol], the “protection against cyclosporine A-induced neutral lipid accumulation” value (PHH spheroids [6]) was “fully protected”.
In the case of lipopolysaccharide [LPS], the IL-6 secretion [7] is reported as “substantial increase”.
